Like-named read-outs stand apart in the source and are kept apart here.

One test relates to Y79 retinoblastoma cells. The test is described as follows: Cell viability assay (resazurin/Alamar Blue), Y79. It is filed as cell-based, human. To be noted: single drug, read-out: Standalone IC50. The method, then: (§1) The human retinoblastoma Y79 (ATCC® HTB18™) and WERI (ATCC® HTB169™) cell lines were cultured in RPMI 1640 (ATCC®) medium supplemented with 20% (Y79) or 10% (WERI-RB) fetal bovine serum, 100 U/mL penicillin, and […] streptomycin in a humidified atmosphere of 5% CO2 at 37° C., grown in 75 cm^2 tissue culture flasks. Once confluent, cells were sub cultivated with fresh medium 1:2 to 1:4 ratios after discarding the supernatant and obtaining the gravity-settled aggregates.
(§2) 10 mL of cell suspension were centrifuged at 1000 G for 10 minutes. The supernatant was discarded and the pellet was then resuspended in media to 1.1*10^5 live cells/mL following a viability cell count check. Cells were plated in 96-well plates at 10,000 cells per well. Sample wells were treated with carboplatin, etoposide or vincristine at the concentrations of 1000 uM, 100 uM, 50 uM, 10 uM, 5 uM, 1 uM, 0.5 uM, and 0.1 uM. Untreated and non-cell controls include a 10 uL vehicle, bringing up all wells to 100 uL total volume. Experiments covered 24/48/72 hour incubations at 5% CO2 at 37° C. prior to analyses. Plates ready for analysis were incubated with 10 uL of 10× Alamar Blue Reagent for 1-4 hours (apparent color change) and emission intensity read at 585 nm following a 555 nm excitation.
(§3) Y79 and WERI cells were incubated with Vincristine, Etoposide, or Carboplatin using previously established half-maximal inhibitory concentrations in a fixed-ratio treatment paradigm. Y79 and WERI cells also were incubated with a mixture of Vincristine, Etoposide, or Carboplatin.
(In general: Alamar Blue is a resazurin reagent that responds to reducing activity.)

The target in a further test is T1, TISSEEL fibrin sealant (Homo sapiens, UniProt P02671+P02675+P02679).
T1 construct: purchased
T1 sequence (P02671 20-644 isoform P02671-2 limits assumed): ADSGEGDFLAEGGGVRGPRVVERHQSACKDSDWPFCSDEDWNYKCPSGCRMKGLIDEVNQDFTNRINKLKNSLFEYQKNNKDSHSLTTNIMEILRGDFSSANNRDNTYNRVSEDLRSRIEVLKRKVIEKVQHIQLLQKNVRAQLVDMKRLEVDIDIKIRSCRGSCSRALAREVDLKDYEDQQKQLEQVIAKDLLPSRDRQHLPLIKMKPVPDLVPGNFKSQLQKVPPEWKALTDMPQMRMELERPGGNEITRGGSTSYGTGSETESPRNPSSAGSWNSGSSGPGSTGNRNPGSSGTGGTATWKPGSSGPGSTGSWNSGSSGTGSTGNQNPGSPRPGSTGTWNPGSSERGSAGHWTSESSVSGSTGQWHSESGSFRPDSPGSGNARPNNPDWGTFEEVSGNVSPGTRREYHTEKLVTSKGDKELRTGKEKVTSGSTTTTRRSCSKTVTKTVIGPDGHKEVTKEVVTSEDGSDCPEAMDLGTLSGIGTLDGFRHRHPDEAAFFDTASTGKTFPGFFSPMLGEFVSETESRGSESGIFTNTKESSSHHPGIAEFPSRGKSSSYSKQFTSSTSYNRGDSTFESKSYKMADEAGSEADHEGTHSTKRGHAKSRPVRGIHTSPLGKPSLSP
T1 sequence (P02675 45-491 limits assumed): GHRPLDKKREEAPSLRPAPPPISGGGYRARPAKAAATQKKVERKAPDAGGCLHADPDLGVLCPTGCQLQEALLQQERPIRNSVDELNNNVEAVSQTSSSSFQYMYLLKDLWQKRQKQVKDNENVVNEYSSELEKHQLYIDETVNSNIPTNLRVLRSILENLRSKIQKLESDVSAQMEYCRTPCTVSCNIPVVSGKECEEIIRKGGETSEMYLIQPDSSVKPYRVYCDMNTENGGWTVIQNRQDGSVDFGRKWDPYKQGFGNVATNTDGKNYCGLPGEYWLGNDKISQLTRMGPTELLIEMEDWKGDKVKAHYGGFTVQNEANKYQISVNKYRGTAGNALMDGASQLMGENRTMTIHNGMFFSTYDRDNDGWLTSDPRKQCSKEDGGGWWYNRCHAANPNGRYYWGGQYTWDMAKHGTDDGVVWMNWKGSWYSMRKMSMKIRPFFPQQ
T1 sequence (P02679 27-437 isoform P02679-2 limits assumed): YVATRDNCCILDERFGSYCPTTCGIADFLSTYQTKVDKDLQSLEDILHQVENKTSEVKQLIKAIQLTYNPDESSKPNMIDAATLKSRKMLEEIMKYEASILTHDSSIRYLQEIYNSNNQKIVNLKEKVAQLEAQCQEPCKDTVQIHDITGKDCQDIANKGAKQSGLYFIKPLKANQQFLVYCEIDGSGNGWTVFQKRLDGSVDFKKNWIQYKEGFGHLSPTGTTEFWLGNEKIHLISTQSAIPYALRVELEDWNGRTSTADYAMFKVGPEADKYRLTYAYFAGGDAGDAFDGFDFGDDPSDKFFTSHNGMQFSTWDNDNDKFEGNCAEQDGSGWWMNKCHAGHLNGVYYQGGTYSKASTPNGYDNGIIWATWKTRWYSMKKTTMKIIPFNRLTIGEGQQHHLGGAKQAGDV
Nature of the test: Scanning electron microscopy branching analysis of drug-embedded fibrin sealant. To be noted: fibrin sealant admixed with 1 mM drug, SEM 5,000x, ImageJ skeleton analysis. The procedure:
FIGS. 8A to 8D depict fiber analysis of VEC-embedded fibrin sealant. Commercially available fibrin sealant was admixed with 1 mM additions of Vincristine, Etoposide, or Carboplatin. Samples were critically point dried and imaged by scanning electron microscopy at 5,000× magnification at various points around the samples. Images were uploaded into ImageJ for fiber analysis. […] In FIG. 8B, the images were binarized to 8-bit grayscale. In FIG. 8C, the binarized image was skeletonized to produce a representation of the fiber network. The Analyze Skeleton function was used to quantify fiber branches and junctions. […] Images analysed were taken at 5,000× magnificent and compared over a 800×800 pixel area. TISSEEL™ or TISSEEL™ admixed with chemotherapeutic drug (1 mM final concentration) was prepared according to the IFU. In short, 2 mM additions of chemotherapy were transferred via syringe and needle to the thrombin vial (500 IU/mL thrombin) during preparation and placed in a Fibrinotherm to spin and heat the mixtures to 37 degrees celsius. Following complete dissolution of both thrombin and fibrinogen solutions, each solution was pulled up into respective syringes and loaded in the Duploject spray system accompanying the kit. The 1 mL volumes of thrombin and fibrinogen (2 mL total) were sprayed onto collagen casing. Immediately following coagulation (˜30 seconds), the samples were washed 3× in cacodylate buffer for 10 minutes and fixed in 2% glutaraldehyde buffer (Electron Microscopy Sciences). Fixed clots were washed, serially dehydrated with ethanol, and dried with hexamethyldisilizane (Electron Microscopy Sciences). Clots were allowed to air dry overnight thereafter. Clots were then teased apart with forceps and mounted on aluminum sample supports with carbon adhesive tape. Samples were sputter coated with 20 nm iridium metal in a Leica ACE600 and analyzed by scanning electron microscopy (FEI Quanta 650 FEG). Branching analysis was performed using 2D images cross-sectional cuts of fibrin clots. Representative images and sections displaying easily discernible fibrin branching characteristics were selected from each group. Images were processed using ImageJ's skeleton analysis function. In short, images were first binarized to delineate the image further into branch and background sections. Binary images were then placed through the Analyze Skeleton (2D/3D) function with no pruning or selected parameters. The output file included details such as branch lengths, branch numbers, and number of junctions.

Test [1] concerns WERI retinoblastoma cells. Nature of the test: Cell viability assay (resazurin/Alamar Blue), WERI. It is filed as cell-based, human. The conditions noted are these: single drug, read-out: Standalone IC50. The method, then:
as §1, §2, §3

A word on the IC50: it is the point on the concentration scale where inhibition reaches its midpoint. As for `N.N.O=C([O-])C1(C(=O)[O-])CCC1.[Pt+2]` [Carboplatin], the IC50 with Y79 retinoblastoma cells is 1100 nM. Moreover, at TISSEEL fibrin sealant, the “Avg Branch length” value was found to be 19 nm, the “Branch/Junction Ratio” value was found to be 68.0, the Junctions is 148 +/− 2.6 and the “Max Branch Number” value is 10065 +/− 142. Further, the IC50 in test [1] came to 1000 nM.

Take `COc1cc([C@@H]2c3cc4c(cc3[C@@H](O[C@@H]3O[C@@H]5CO[C@@H](C)O[C@H]5[C@H](O)[C@H]3O)[C@H]3COC(=O)[C@H]23)OCO4)cc(OC)c1O` [Etoposide]: the IC50 with Y79 retinoblastoma cells (Homo sapiens) is 6000 nM. Further, on TISSEEL fibrin sealant, the “Avg Branch length” value is given as 21 nm, the “Branch/Junction Ratio” value came to 66.2, the Junctions was 125 +/− 2.1 and the “Max Branch Number” value is given as 8272 +/− 140. Further, the IC50 in test [1] (Homo sapiens) amounted to 2700 nM.

As to `CC[C@]1(O)C[C@H]2CN(CCc3c([nH]c4ccccc34)[C@@](C(=O)OC)(c3cc4c(cc3OC)N(C=O)[C@H]3[C@@](O)(C(=O)OC)[C@H](OC(C)=O)[C@]5(CC)C=CCN6CC[C@]43[C@@H]65)C2)C1` [Vincristine], the IC50 in the test with Y79 retinoblastoma cells (Homo sapiens) was determined as 100 nM. Also, on TISSEEL fibrin sealant, the “Avg Branch length” value came to 22 nm, the “Branch/Junction Ratio” value was 55.7, the Junctions is 136 +/− 2.3 and the “Max Branch Number” value was 7580 +/− 125. Besides, the IC50 in test [1] (Homo sapiens) came out at 2900 nM.
